ChEMBL document CHEMBL1139883, “Additional scalarane sesterterpenes from the sponge Phyllospongia papyracea” (J Nat Prod, 2007)
Calls of active or inactive are those of the source. The rule behind the calls is not given here.

molecular target: T1, Catenin beta-1 (Homo sapiens) (UniProt P35222); test: Activity against beta […]/Tcf4 complex by PPI assay
T1 sequence (whole entry): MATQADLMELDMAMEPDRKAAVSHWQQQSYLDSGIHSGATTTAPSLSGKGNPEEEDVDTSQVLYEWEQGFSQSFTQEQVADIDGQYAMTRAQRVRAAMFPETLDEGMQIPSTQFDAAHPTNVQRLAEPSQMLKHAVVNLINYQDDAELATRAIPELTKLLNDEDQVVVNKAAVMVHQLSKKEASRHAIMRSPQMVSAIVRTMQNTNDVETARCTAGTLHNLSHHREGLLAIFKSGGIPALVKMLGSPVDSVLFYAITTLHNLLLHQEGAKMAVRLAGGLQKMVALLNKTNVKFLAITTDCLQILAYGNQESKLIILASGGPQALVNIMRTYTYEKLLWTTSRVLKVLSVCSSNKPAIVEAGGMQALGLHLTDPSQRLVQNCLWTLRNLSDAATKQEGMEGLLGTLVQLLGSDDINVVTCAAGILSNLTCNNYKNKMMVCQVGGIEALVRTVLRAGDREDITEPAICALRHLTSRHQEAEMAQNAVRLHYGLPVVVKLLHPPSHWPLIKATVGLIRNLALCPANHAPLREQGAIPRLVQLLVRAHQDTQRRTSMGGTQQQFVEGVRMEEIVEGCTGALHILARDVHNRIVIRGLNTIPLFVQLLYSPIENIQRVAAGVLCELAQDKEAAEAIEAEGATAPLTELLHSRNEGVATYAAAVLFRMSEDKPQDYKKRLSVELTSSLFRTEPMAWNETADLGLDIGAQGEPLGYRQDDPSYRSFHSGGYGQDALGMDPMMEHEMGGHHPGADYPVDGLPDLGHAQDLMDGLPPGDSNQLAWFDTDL

Activity, inactive:
CC[C@@]1(C)CCC[C@]2(C)[C@H]3C[C@H](OC(C)=O)[C@]45C[C@H](O)[C@H]4C(C(C)=O)=CC[C@H]5[C@]3(C)CC[C@@H]12, CC[C@@]1(C)CCC[C@]2(C)[C@H]3C[C@H](OC(C)=O)[C@]4(C)[C@@H](C(=O)O)C(C(C)=O)=CC[C@H]4[C@]3(C)CC[C@@H]12, CCC(O)CC(=O)O[C@@H]1C[C@H]2[C@]3(C)CC[C@H]4[C@@](C)(CC)CCC[C@]4(C)[C@H]3C[C@H](OC(C)=O)[C@]2(C)[C@@H](C(=O)O)[C@@H]1C(C)=O (some centres not stated), CC[C@@]1(C)CCC[C@]2(C)[C@H]3C[C@H](OC(C)=O)[C@]4(C)[C@@H](O)C(C(C)=O)=CC[C@H]4[C@]3(C)CC[C@@H]12, CC[C@@]1(C)CCC[C@]2(C)[C@H]3C[C@H](OC(C)=O)[C@@]4(C)C(=CC(=O)C5=C4C(=O)OC5(C)O)[C@]3(C)CC[C@@H]12 (some centres not stated), CC[C@@]1(C)CCC[C@]2(C)[C@H]3C[C@H](OC(C)=O)[C@]45C[C@@H](O)[C@H]4C(C(C)=O)=CC[C@H]5[C@]3(C)CC[C@@H]12, CC[C@@]1(C)CCC[C@]2(C)[C@H]3C[C@H](OC(C)=O)[C@]4(C)C5=C(C(=O)C[C@H]4[C@]3(C)CC[C@@H]12)C(C)OC5=O (some centres not stated)
